The source of these data is the NIST ThermoML archive (doi:10.1021/je400238j).

The conditions of the data set: Liquid, Ebulliometric method (Recirculating still).

Numbers after ± are expanded uncertainties.

As for `CCO` [ethanol], the “vapor or sublimation pressure” value by setting is: (323.46 K) 30 ± 1.3 kPa; (338.72 K) 60 ± 1.5 kPa; (348.56 K) 90 ± 1.8 kPa; (351.51 K) 101.3 ± 2 kPa.
Consider `CCCCCCCC` [octane], for which the “vapor or sublimation pressure” value is, setting by setting: (359.76 K) 30 ± 1.3 kPa; (360.06 K) 30 ± 2.5 kPa; (380.43 K) 60 ± 1.5 kPa; (380.94 K) 60 ± 4.7 kPa; (394.09 K) 90 ± 1.9 kPa; (394.6 K) 90 ± 7 kPa. Moreover, the “vapor or sublimation pressure” value is, setting by setting: (398.49 K) 101.3 ± 2 kPa; (398.74 K) 101.3 ± 7.9 kPa.
